Assay results from patent US10174016B2 (BAYER AKTIENGESELLSCHAFT, priority 2014, dated 2019).
Read-outs that look alike come from different tables or passages of the source.

How the values were obtained:
human P2X2/3 receptor = human P2X2/3 receptor (Homo sapiens (Human), UniProt P56373+Q9UBL9); assay: Intracellular calcium measurement (FLIPR, Fluo-4) of antagonist activity at human P2X2/3 receptors; assay type: cell-based; settings: human P2X2/3, FLIPR calcium assay, agonist α,β-Me-ATP; read-out: hP2X2/3 IC50
How it was run: (§1)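 Antagonism quantified from peak calcium fluorescence (Fluo-4, FLIPR, 90 sec read) evoked by EC80 α,β-Me-ATP, after a 30 min, 37° C. compound pretreatment in 1% DMSO. Human P2X3- or P2X2/3-expressing cells used; triplicate means fitted for IC50, percent maximal inhibition and Hill coefficient.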

human P2X3 receptor = human P2X3 receptor (Homo sapiens (Human), UniProt P56373); assay: Intracellular calcium measurement (FLIPR, Fluo-4) of antagonist activity at human P2X3 receptors; assay type: cell-based; settings: read-out: hP2X3 IC50
How it was run: as §1

[1] = human P2X3, FLIPR calcium assay, agonist α,β-Me-ATP

human P2X2/3 receptor, sequence (P56373 whole entry): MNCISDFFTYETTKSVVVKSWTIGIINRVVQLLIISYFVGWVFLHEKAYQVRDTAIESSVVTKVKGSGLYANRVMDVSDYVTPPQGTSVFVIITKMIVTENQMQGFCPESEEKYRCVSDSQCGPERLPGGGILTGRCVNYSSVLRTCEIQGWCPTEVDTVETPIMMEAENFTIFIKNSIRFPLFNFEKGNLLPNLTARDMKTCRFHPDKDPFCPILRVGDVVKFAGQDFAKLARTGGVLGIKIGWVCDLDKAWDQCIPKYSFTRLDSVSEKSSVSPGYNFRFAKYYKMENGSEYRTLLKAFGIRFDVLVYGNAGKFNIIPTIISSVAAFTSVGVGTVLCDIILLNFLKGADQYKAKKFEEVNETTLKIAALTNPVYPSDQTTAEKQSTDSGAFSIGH
human P2X2/3 receptor, sequence (Q9UBL9 whole entry): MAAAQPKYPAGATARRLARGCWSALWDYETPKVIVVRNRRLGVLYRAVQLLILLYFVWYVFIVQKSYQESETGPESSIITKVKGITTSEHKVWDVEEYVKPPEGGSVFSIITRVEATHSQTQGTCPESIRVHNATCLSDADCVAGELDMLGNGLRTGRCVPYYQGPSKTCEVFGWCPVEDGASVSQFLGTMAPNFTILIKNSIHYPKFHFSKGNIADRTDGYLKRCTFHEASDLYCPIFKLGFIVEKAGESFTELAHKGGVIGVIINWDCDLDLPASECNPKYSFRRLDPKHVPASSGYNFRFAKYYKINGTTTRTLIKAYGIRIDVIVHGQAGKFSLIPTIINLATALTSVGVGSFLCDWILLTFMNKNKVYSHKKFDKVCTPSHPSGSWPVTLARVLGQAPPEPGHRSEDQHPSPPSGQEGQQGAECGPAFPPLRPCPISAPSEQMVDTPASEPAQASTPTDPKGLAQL
human P2X3 receptor, sequence (P56373 whole entry): as the sequence (P56373 whole entry) above

Structure (SMILES): Cc1cnc(-c2cc(OC3CCS(=O)(=O)CC3)cc(C(=O)N[C@H](C)c3ccc(C(F)(F)F)nc3)c2)s1 [Example 233, 3-[(1,1-dioxidotetrahydro-2H-thiopyran-4-yl)oxy]-5-(5-methyl-1,3-thiazol-2-yl)-N-{(1R)-1-[6-(trifluoromethyl)pyridin-3-yl]ethyl}benzamide]
- IC50 (human P2X2/3 receptor): 753 nM
- IC50 (human P2X3 receptor; [1]): 16 nM

Structure (SMILES): CCc1cnc(-c2cc(OC3CCOCC3)cc(C(=O)NCc3ccc(C)nn3)c2)s1 [Example 235, 3-(5-ethyl-1,3-thiazol-2-yl)-N-[(6-methylpyridazin-3-yl)methyl]-5-(tetrahydro-2H-pyran-4-yloxy)benzamide]
- IC50 (human P2X2/3 receptor): 70 nM
- IC50 (human P2X3 receptor; [1]): 18 nM

Structure (SMILES): Cc1ccc(CNC(=O)c2cc(OC3CCOCC3)cc(-c3ncc(C4CCC4)s3)c2)nn1 [Example 237, 3-(5-cyclobutyl-1,3-thiazol-2-yl)-N-[(6-methylpyridazin-3-yl)methyl]-5-(tetrahydro-2H-pyran-4-yloxy)benzamide]
- IC50 (human P2X2/3 receptor): 537 nM
- IC50 (human P2X3 receptor; [1]): 177 nM

Structure (SMILES): C[C@@H](NC(=O)c1cc(OC2CCOCC2)cc(-c2ncc(C3CCC3)s2)c1)c1cnc(C(F)(F)F)nc1 [Example 238, 3-(5-cyclobutyl-1,3-thiazol-2-yl)-5-(tetrahydro-2H-pyran-4-yloxy)-N-{(1R)-1-[2-(trifluoromethyl)pyrimidin-5-yl]ethyl}benzamide]
- IC50 (human P2X2/3 receptor): 397 nM
- IC50 (human P2X3 receptor; [1]): 38 nM

Structure (SMILES): C[C@H](NC(=O)c1cc(OC[C@H]2CCOC2)cc(-c2ncc(C3CCC3)s2)c1)c1cnc(C(F)(F)F)nc1 [Example 239, 3-(5-cyclobutyl-1,3-thiazol-2-yl)-5-[(3S)-tetrahydrofuran-3-ylmethoxy]-N-{(1S)-1-[2-(trifluoromethyl)pyrimidin-5-yl]ethyl}benzamide]
- IC50 (human P2X2/3 receptor): 2170 nM
- IC50 (human P2X3 receptor; [1]): 1420 nM

Structure (SMILES): CCc1cnc(-c2cc(O[C@@H]3CCOC3)cc(C(=O)N[C@H](C)c3ccc(C)nn3)c2)s1 [Example 240, 3-(5-ethyl-1,3-thiazol-2-yl)-N-[(1R)-1-(6-methylpyridazin-3-yl)ethyl]-5-[(3R)-tetrahydrofuran-3-yloxy]benzamide]
- IC50 (human P2X2/3 receptor): 35 nM
- IC50 (human P2X3 receptor; [1]): 12 nM

Structure (SMILES): CCc1cnc(-c2cc(O[C@@H]3CCOC3)cc(C(=O)N[C@H](C)c3cnc(C(F)(F)F)nc3)c2)s1 [Example 242, 3-(5-ethyl-1,3-thiazol-2-yl)-5-[(3R)-tetrahydrofuran-3-yloxy]-N-{(1R)-1-[2-(trifluoromethyl)pyrimidin-5-yl]ethyl}benzamide]
- IC50 (human P2X2/3 receptor): 22 nM
- IC50 (human P2X3 receptor; [1]): 2 nM

Structure (SMILES): Cc1ccc([C@@H](C)NC(=O)c2cc(O[C@@H]3CCOC3)cc(-c3ncc(C(C)C)s3)c2)nn1 [Example 246, N-[(1R)-1-(6-methylpyridazin-3-yl)ethyl]-3-[5-(propan-2-yl)-1,3-thiazol-2-yl]-5-[(3R)-tetrahydrofuran-3-yloxy]benzamide]
- IC50 (human P2X2/3 receptor): 982 nM
- IC50 (human P2X3 receptor; [1]): 266 nM

Structure (SMILES): CC(C)c1cnc(-c2cc(O[C@@H]3CCOC3)cc(C(=O)N[C@H](C)c3cnc(C(F)(F)F)nc3)c2)s1 [Example 248, 3-[5-(propan-2-yl)-1,3-thiazol-2-yl]-5-[(3R)-tetrahydrofuran-3-yloxy]-N-{(1R)-1-[2-(trifluoromethyl)pyrimidin-5-yl]ethyl}benzamide]
- IC50 (human P2X2/3 receptor): 273 nM
- IC50 (human P2X3 receptor; [1]): 44 nM

Structure (SMILES): CCc1cnc(-c2cc(O[C@H]3CCOC3)cc(C(=O)N[C@H](C)c3ccc(C)nn3)c2)s1 [Example 249, 3-(5-ethyl-1,3-thiazol-2-yl)-N-[(1R)-1-(6-methylpyridazin-3-yl)ethyl]-5-[(3S)-tetrahydrofuran-3-yloxy]benzamide]
- IC50 (human P2X2/3 receptor): 57 nM
- IC50 (human P2X3 receptor; [1]): 11 nM

Structure (SMILES): CCc1cnc(-c2cc(O[C@H]3CCOC3)cc(C(=O)N[C@H](C)c3cnc(C(F)(F)F)nc3)c2)s1 [Example 251, 3-(5-ethyl-1,3-thiazol-2-yl)-5-[(3S)-tetrahydrofuran-3-yloxy]-N-{(1R)-1-[2-(trifluoromethyl)pyrimidin-5-yl]ethyl}benzamide]
- IC50 (human P2X2/3 receptor): 38 nM
- IC50 (human P2X3 receptor; [1]): 5 nM

Structure (SMILES): Cc1ccc([C@@H](C)NC(=O)c2cc(O[C@H]3CCOC3)cc(-c3ncc(C(C)C)s3)c2)nn1 [Example 255, N-[(1R)-1-(6-methylpyridazin-3-yl)ethyl]-3-[5-(propan-2-yl)-1,3-thiazol-2-yl]-5-[(3S)-tetrahydrofuran-3-yloxy]benzamide]
- IC50 (human P2X2/3 receptor): 449 nM
- IC50 (human P2X3 receptor; [1]): 254 nM

Structure (SMILES): CC(C)c1cnc(-c2cc(O[C@H]3CCOC3)cc(C(=O)N[C@H](C)c3cnc(C(F)(F)F)nc3)c2)s1 [Example 257, 3-[5-(propan-2-yl)-1,3-thiazol-2-yl]-5-[(3S)-tetrahydrofuran-3-yloxy]-N-{(1R)-1-[2-(trifluoromethyl)pyrimidin-5-yl]ethyl}benzamide]
- IC50 (human P2X2/3 receptor): 324 nM
- IC50 (human P2X3 receptor; [1]): 47 nM

Structure (SMILES): CCc1cnc(-c2cc(OC[C@@H]3CCOC3)cc(C(=O)N[C@H](C)c3cnc(C)cn3)c2)s1 [Example 259, 3-(5-ethyl-1,3-thiazol-2-yl)-N-[(1R)-1-(5-methylpyrazin-2-yl)ethyl]-5-[(3R)-tetrahydrofuran-3-ylmethoxy]benzamide]
- IC50 (human P2X2/3 receptor): 102 nM
- IC50 (human P2X3 receptor; [1]): 10 nM

Structure (SMILES): CCc1cnc(-c2cc(OC[C@@H]3CCOC3)cc(C(=O)N[C@H](C)c3cnc(C(F)(F)F)nc3)c2)s1 [Example 260, 3-(5-ethyl-1,3-thiazol-2-yl)-5-[(3R)-tetrahydrofuran-3-ylmethoxy]-N-{(1R)-1-[2-(trifluoromethyl)pyrimidin-5-yl]ethyl}benzamide]
- IC50 (human P2X2/3 receptor): 14 nM
- IC50 (human P2X3 receptor; [1]): 2 nM

Structure (SMILES): Cc1ccc([C@@H](C)NC(=O)c2cc(OC[C@@H]3CCOC3)cc(-c3ncc(C4CCC4)s3)c2)nn1 [Example 261, 3-(5-cyclobutyl-1,3-thiazol-2-yl)-N-[(1R)-1-(6-methylpyridazin-3-yl)ethyl]-5-[(3R)-tetrahydrofuran-3-ylmethoxy]benzamide]
- IC50 (human P2X2/3 receptor): 317 nM
- IC50 (human P2X3 receptor; [1]): 45 nM

Structure (SMILES): C[C@@H](NC(=O)c1cc(OC[C@@H]2CCOC2)cc(-c2ncc(C3CCC3)s2)c1)c1cnc(C(F)(F)F)nc1 [Example 263, 3-(5-cyclobutyl-1,3-thiazol-2-yl)-5-[(3R)-tetrahydrofuran-3-ylmethoxy]-N-{(1R)-1-[2-(trifluoromethyl)pyrimidin-5-yl]ethyl}benzamide]
- IC50 (human P2X2/3 receptor): 170 nM
- IC50 (human P2X3 receptor; [1]): 33 nM

Structure (SMILES): Cc1ccc([C@@H](C)NC(=O)c2cc(OC[C@@H]3CCOC3)cc(-c3ncc(C(C)C)s3)c2)nn1 [Example 264, N-[(1R)-1-(6-methylpyridazin-3-yl)ethyl]-3-[5-(propan-2-yl)-1,3-thiazol-2-yl]-5-[(3R)-tetrahydrofuran-3-ylmethoxy]benzamide]
- IC50 (human P2X2/3 receptor): 530 nM
- IC50 (human P2X3 receptor; [1]): 81 nM

Structure (SMILES): CC(C)c1cnc(-c2cc(OC[C@@H]3CCOC3)cc(C(=O)N[C@H](C)c3cnc(C(F)(F)F)nc3)c2)s1 [Example 266, 3-[5-(propan-2-yl)-1,3-thiazol-2-yl]-5-[(3R)-tetrahydrofuran-3-ylmethoxy]-N-{(1R)-1-[2-(trifluoromethyl)pyrimidin-5-yl]ethyl}benzamide]
- IC50 (human P2X2/3 receptor): 367 nM
- IC50 (human P2X3 receptor; [1]): 41 nM

Structure (SMILES): CCc1cnc(-c2cc(OC[C@H]3CCCO3)cc(C(=O)N[C@H](C)c3cnc(C)cn3)c2)s1 [Example 268, 3-(5-ethyl-1,3-thiazol-2-yl)-N-[(1R)-1-(5-methylpyrazin-2-yl)ethyl]-5-[(2R)-tetrahydrofuran-2-ylmethoxy]benzamide]
- IC50 (human P2X2/3 receptor): 392 nM
- IC50 (human P2X3 receptor): 14 nM

Structure (SMILES): CCc1cnc(-c2cc(OC[C@H]3CCCO3)cc(C(=O)N[C@H](C)c3cnc(C(F)(F)F)nc3)c2)s1 [Example 269, 3-(5-ethyl-1,3-thiazol-2-yl)-5-[(2R)-tetrahydrofuran-2-ylmethoxy]-N-{(1R)-1-[2-(trifluoromethyl)pyrimidin-5-yl]ethyl}benzamide]
- IC50 (human P2X2/3 receptor): 35 nM
- IC50 (human P2X3 receptor; [1]): 2 nM

Structure (SMILES): Cc1ccc([C@@H](C)NC(=O)c2cc(OC[C@H]3CCCO3)cc(-c3ncc(C4CCC4)s3)c2)nn1 [Example 270, 3-(5-cyclobutyl-1,3-thiazol-2-yl)-N-[(1R)-1-(6-methylpyridazin-3-yl)ethyl]-5-[(2R)-tetrahydrofuran-2-ylmethoxy]benzamide]
- IC50 (human P2X2/3 receptor): 100 nM
- IC50 (human P2X3 receptor; [1]): 25 nM

Structure (SMILES): C[C@@H](NC(=O)c1cc(OC[C@H]2CCCO2)cc(-c2ncc(C3CCC3)s2)c1)c1cnc(C(F)(F)F)nc1 [Example 272, 3-(5-cyclobutyl-1,3-thiazol-2-yl)-5-[(2R)-tetrahydrofuran-2-ylmethoxy]-N-{(1R)-1-[2-(trifluoromethyl)pyrimidin-5-yl]ethyl}benzamide]
- IC50 (human P2X2/3 receptor): 128 nM
- IC50 (human P2X3 receptor): 19 nM

Structure (SMILES): Cc1ccc([C@@H](C)NC(=O)c2cc(OC[C@H]3CCCO3)cc(-c3ncc(C(C)C)s3)c2)nn1 [Example 273, N-[(1R)-1-(6-methylpyridazin-3-yl)ethyl]-3-[5-(propan-2-yl)-1,3-thiazol-2-yl]-5-[(2R)-tetrahydrofuran-2-ylmethoxy]benzamide]
- IC50 (human P2X2/3 receptor): 254 nM
- IC50 (human P2X3 receptor): 28 nM

Structure (SMILES): CC(C)c1cnc(-c2cc(OC[C@H]3CCCO3)cc(C(=O)N[C@H](C)c3cnc(C(F)(F)F)nc3)c2)s1 [Example 275, 3-[5-(propan-2-yl)-1,3-thiazol-2-yl]-5-[(2R)-tetrahydrofuran-2-ylmethoxy]-N-{(1R)-1-[2-(trifluoromethyl)pyrimidin-5-yl]ethyl}benzamide]
- IC50 (human P2X2/3 receptor): 191 nM
- IC50 (human P2X3 receptor): 21 nM

Structure (SMILES): CCc1cnc(-c2cc(OC[C@H]3CCOC3)cc(C(=O)N[C@H](C)c3cnc(C)cn3)c2)s1 [Example 277, 3-(5-ethyl-1,3-thiazol-2-yl)-N-[(1R)-1-(5-methylpyrazin-2-yl)ethyl]-5-[(3S)-tetrahydrofuran-3-ylmethoxy]benzamide]
- IC50 (human P2X2/3 receptor): 96 nM
- IC50 (human P2X3 receptor; [1]): 6 nM

Structure (SMILES): CCc1cnc(-c2cc(OC[C@H]3CCOC3)cc(C(=O)N[C@H](C)c3cnc(C(F)(F)F)nc3)c2)s1 [Example 278, 3-(5-ethyl-1,3-thiazol-2-yl)-5-[(3S)-tetrahydrofuran-3-ylmethoxy]-N-{(1R)-1-[2-(trifluoromethyl)pyrimidin-5-yl]ethyl}benzamide]
- IC50 (human P2X2/3 receptor): 23 nM
- IC50 (human P2X3 receptor; [1]): 2 nM
